Reference: ChEMBL document CHEMBL1201862, “PubChem BioAssay data set” (2004)
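How tested: cells in 96-well plates exposed to compound for 48 hours at five concentrations. At the GI50, growth is halved.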 Calls of active or inactive are those of the source. Rule as the data show it: active = GI50 up to about 1.1 µM and inactive = higher.

Tests used:
Test in all cases: growth of human tumour cells (NCI), 48 h
[1] = test system: 786-0
[2] = test system: A498
[3] = test system: A549
[4] = test system: ACHN
[5] = test system: CAKI-1
[6] = test system: CCRF-CEM
[7] = test system: COLO 205
[8] = test system: DLD-1
[9] = test system: DMS-114
[10] = test system: DMS-273
[11] = test system: DU-145
[12] = test system: EKVX
[13] = test system: HCC 2998
[14] = test system: HCT-116
[15] = test system: HCT-15
[16] = test system: HL-60
[17] = test system: HOP-18
[18] = test system: HOP-62
[19] = test system: HOP-92
[20] = test system: HT-29
[21] = test system: IGROV-1
[22] = test system: K562
[23] = test system: KM-20L2
[24] = test system: KM12
[25] = test system: LOX IMVI
[26] = test system: LXFL 529
[27] = test system: M14
[28] = test system: M19-MEL
[29] = test system: MOLT-4
[30] = test system: Malme-3M
[31] = test system: NCI-H226
[32] = test system: NCI-H23
[33] = test system: NCI-H460
[34] = test system: NCI-H522
[35] = test system: OVCAR-3
[36] = test system: OVCAR-4
[37] = test system: OVCAR-5
[38] = test system: OVCAR-8
[39] = test system: RPMI-8226
[40] = test system: RXF 393
[41] = test system: SF-268
[42] = test system: SF-295
[43] = test system: SF-539
[44] = test system: SK-MEL-28
[45] = test system: SK-MEL-2
[46] = test system: SK-MEL-5
[47] = test system: SK-OV-3
[48] = test system: SN12C
[49] = test system: SNB-19
[50] = test system: SNB-75
[51] = test system: SNB-78
[52] = test system: SR
[53] = test system: SW-620
[54] = test system: TK-10
[55] = test system: U-251
[56] = test system: UACC-257
[57] = test system: UACC-62
[58] = test system: UO-31
[59] = test system: XF498
[60] = test system: BT-549
[61] = test system: Hs-578T
[62] = test system: MCF7
[63] = test system: MDA-MB-231
[64] = test system: MDA-MB-435
[65] = test system: MDA-N
[66] = test system: NCI/ADR-RES
[67] = test system: PC-3
[68] = test system: T47D

Measured: GI50

CCN(CC)CCOc1ccc(/C=C(\C#N)c2ccc(OCCN(CC)CC)cc2)cc1
14.5 µM: [15]
inactive: [1] 11.3 µM | [2] 16.9 µM | [3] 19.1 µM | [4] 27.3 µM | [5] > 43.7 µM | [6] 3.44 µM | [7] 10.8 µM | [8] 19.5 µM | [9] 10.8 µM | [10] 13.6 µM | [11] 65.6 µM | [12] > 51.2 µM | [13] 15.7 µM | [14] 5.87 µM | [16] 4.84 µM | [17] 25.6 µM | [18] 10.6 µM | [19] 16.9 µM | [20] 1.43 µM | [21] 22.7 µM | [22] 3.37 µM | [23] 1.56 µM | [24] 10.7 µM | [25] 12.6 µM | [26] 16.1 µM | [27] 7.64 µM | [28] 14.8 µM | [29] 9.12 µM | [30] 14.5 µM | [31] 39.4 µM | [32] 17.3 µM | [33] 18.1 µM | [34] 11.3 µM | [35] 22.4 µM | [36] 37.3 µM | [37] 11.6 µM | [38] 20.5 µM | [39] 13 µM | [40] 12.4 µM | [41] 19.1 µM | [42] 13.4 µM | [43] 7.64 µM | [44] 16.5 µM | [45] 21.4 µM | [46] 4.48 µM | [47] 28.2 µM | [48] 45.1 µM | [49] 36.4 µM | [50] 16 µM | [51] 20.5 µM | [52] 7.89 µM | [53] 15.3 µM | [54] > 59.7 µM | [55] 13.5 µM | [56] 16.9 µM | [57] 16.6 µM | [58] 14.7 µM | [59] 13.4 µM

COc1cccc2ccc3c(c12)C(=O)OC31CCc2c(C)cccc21 (stereo unspecified)
10.3 µM: [15]
active: [62] 18 nM
inactive: [1] 28.8 µM | [2] 7.41 µM | [3] 17.1 µM | [4] 8.04 µM | [60] > 100 µM | [5] 7.26 µM | [6] 24 µM | [7] 22.6 µM | [8] 8.79 µM | [9] 8.67 µM | [10] 6.81 µM | [11] 34.2 µM | [12] 27.1 µM | [13] 26.7 µM | [14] 8.49 µM | [16] 8.59 µM | [17] > 31.6 µM | [18] 18.5 µM | [19] 11.2 µM | [20] 11.8 µM | [61] 38.5 µM | [21] 34.5 µM | [22] 7.91 µM | [23] 15 µM | [24] 23.7 µM | [25] 14.2 µM | [26] 15 µM | [27] 19.9 µM | [28] 15.5 µM | [63] 36.1 µM | [64] 20.4 µM | [65] 7.55 µM | [29] 13.2 µM | [30] 19.1 µM | [31] 12 µM | [32] 8.51 µM | [33] 10.6 µM | [34] 21.4 µM | [66] 13.4 µM | [35] 10.3 µM | [36] 15.2 µM | [37] 26.5 µM | [38] 15.8 µM | [67] 15.6 µM | [39] 6.87 µM | [40] 8.97 µM | [41] 30.3 µM | [42] 9.95 µM | [43] 31.3 µM | [44] 22.4 µM | [45] 32.1 µM | [46] 10.2 µM | [47] > 46.5 µM | [48] 16.5 µM | [49] 11.4 µM | [50] 13.4 µM | [51] 39.1 µM | [52] 7.16 µM | [53] 12.1 µM | [68] 32.4 µM | [54] 23.1 µM | [55] 23.2 µM | [56] 23.4 µM | [57] 11.6 µM | [58] 9.16 µM | [59] 14.4 µM

COc1cc2c(cc1OC)[C@H]1C(COC(=O)c3ccccc3)CS/C(=N/c3ccccc3)N1CC2 (stereo partly specified)
> 100 µM: [15]
inactive: [1] > 100 µM | [2] 48.9 µM | [3] 82.6 µM | [4] > 100 µM | [5] > 100 µM | [6] > 100 µM | [7] > 100 µM | [8] > 100 µM | [9] 17.1 µM | [10] 74 µM | [12] > 100 µM | [13] > 100 µM | [14] 5.68 µM | [16] 5.31 µM | [17] > 100 µM | [18] > 100 µM | [19] 8.17 µM | [20] 8.24 µM | [21] > 100 µM | [23] 76 µM | [24] > 100 µM | [25] 92.9 µM | [26] 24.4 µM | [27] > 100 µM | [28] > 100 µM | [29] 2.91 µM | [30] > 100 µM | [31] 36.3 µM | [32] 5.9 µM | [33] 91.8 µM | [34] 2.34 µM | [35] > 100 µM | [36] 5.15 µM | [37] 3.54 µM | [38] > 100 µM | [39] 4.33 µM | [40] 13.3 µM | [41] 8.69 µM | [42] > 100 µM | [43] > 100 µM | [44] > 100 µM | [45] 3.21 µM | [46] > 100 µM | [47] > 100 µM | [48] > 100 µM | [49] 21 µM | [50] 27.7 µM | [51] 27 µM | [52] 5.71 µM | [53] > 100 µM | [54] 81.1 µM | [55] 24.3 µM | [56] > 100 µM | [57] > 100 µM | [58] 24.5 µM | [59] > 100 µM

CC(C)C1NC(=O)[C@H](C)OC(=O)[C@@H](C(C)C)NC(=O)[C@@H](C)OC(=O)C(C(C)C)NC(=O)[C@H](C)OC1=O (stereo partly specified)
17.5 µM: [15]
inactive: [1] 20.9 µM | [2] > 100 µM | [3] > 100 µM | [4] > 100 µM | [5] > 100 µM | [6] > 100 µM | [7] > 54.6 µM | [8] > 59.6 µM | [9] > 63.8 µM | [10] 59.2 µM | [12] > 100 µM | [13] > 100 µM | [14] > 86.5 µM | [16] > 100 µM | [17] > 100 µM | [18] > 100 µM | [19] > 100 µM | [20] > 100 µM | [21] > 100 µM | [22] > 41.7 µM | [23] 56.4 µM | [24] > 88.7 µM | [25] > 49.3 µM | [26] > 66.2 µM | [27] > 95.1 µM | [28] > 55.5 µM | [29] > 100 µM | [30] > 100 µM | [31] > 100 µM | [32] > 100 µM | [33] > 79.4 µM | [34] > 100 µM | [35] > 100 µM | [36] > 67.1 µM | [37] > 100 µM | [38] > 100 µM | [39] > 47.9 µM | [41] > 100 µM | [42] > 100 µM | [43] > 50.9 µM | [44] > 100 µM | [45] > 100 µM | [46] > 100 µM | [47] > 100 µM | [48] > 100 µM | [49] > 100 µM | [50] > 100 µM | [51] > 100 µM | [52] 29.8 µM | [53] > 28.1 µM | [54] > 100 µM | [55] > 68.4 µM | [56] > 100 µM | [57] > 100 µM | [58] > 100 µM | [59] 94 µM
